Earlier results, collected in patent publication US20160000762A1, “IMPROVING COGNITIVE FUNCTION” (THE REGENTS OF THE UNIVERSITY OF CALIFORNIA, priority 2013, published 2016).

Tested on: Aβ
Conditions: after traumatic brain injury; Loane et al., 2009; cited from earlier work

Compound: C[C@H](NC(=O)Cc1cc(F)cc(F)c1)C(=O)N[C@H](C(=O)OC(C)(C)C)c1ccccc1 [DAPT]
- Aβ levels: decreased
- behavioral performance: improved
